Columns and labels:
[1] = molecular target: T1, DP receptor (Homo sapiens (Human), UniProt Q13258); experiment: cAMP assay with washed platelets (DP inhibitory activity in vitro); assay type: cell-based; conditions: 100 nM of PGD2, cAMP by HTRF, read-out: IC50 (50% DP-inhibitory concentration in the cAMP assay)
Procedure: 1) Preparation of Platelet and a Method of cAMP Assay
30 mL of peripheral blood was collected from a healthy volunteer using a syringe containing one ninth amount of 3.8% sodium citrate. After being centrifuged at 180 g for 10 minutes at room temperature, a supernatant was collected and used as Platelet Rich Plasma (PRP). The resulting PRP was washed with wash buffer and centrifuged three times (Washed Platelet: WP) and platelets were counted by a microcell counter. WP was added to a plate in amount of 1.5×10^8/assay and the plate was treated with 3-isobutyl-1-methylxanthin (IBMX; 0.5 mM) for 5 minutes. A reaction was initiated by adding 100 nM of PGD2 5 min after an addition of a test compound. The reaction was terminated with an addition of 1N hydrochloric acid after 2 minutes and the cells were destructed using 12% triton X-100. An amount of cAMP in the supernatant was assayed by Homogeneous Trangient Fluorescence (HTRF)

[2] = molecular target: T1, DP receptor; experiment: Receptor binding assay, [3H]-PGD2, platelet membrane
Procedure: 2) Receptor Binding Assay
A prepared WP was homogenated and a membrane fraction was collected with high-speed centrifugation. A compound of the present invention was added to the plate and [^3H]-PGD2 was also added. A platelet membrane, a protein concentration is 2 mg/mL, was added and mixed in the plate, and placed on ice for 2 hours. The reaction solution was transferred to a low protein-adsorptive filter and washed with a wash solution eight times using a cell harvester. After the final washing, water was removed sufficiently, and scintillator was added. DP inhibitory activity was investigated by measuring [^3H] by using Micro Beta.

[3] = test system: OVA asthma model of rat; experiment: OVA asthma model of rat: increased hyperresponsive airway (acetylcholine); assay type: in vivo, Brown Norway (BN) Rats; conditions: BN rats, 10 mg/kg p.o. once a day for three days, vs control group, AUC of acetylcholine response curve
Procedure: (§1) Brown Norway (BN) Rats were sensitized by i.p. administration of 0.1 mg/mL of ovalbumin (OVA) and 1 mg of aluminum hydroxide gel. A solution of 1% OVA was aerosolized by ultrasonic nebulizer (NE-U17) and the rats were subjected to inhalation exposure of the aerosol for 30 minutes in an exposing chamber 12, 19, 26 and 33 days after the sensitization. One hour before the 4th exposure of the antigen, compounds of the present invention were administered in a dose of 10 mg/kg p.o. once a day for three days consecutively. In a control group, 0.5% of methyl cellulose was administered in place of the compound of the present invention.
Under pentobarbital anesthesia (80 mg/kg, i.p.), acetylcholine (3.9, 7.8, 15.6, 31.3, 62.5, 125, 250 and 500 μg/kg) was injected to jugular vein of the rats successively from a lower dose at intervals of 5 minutes three days after the fourth exposure to the antigen, and immediate contractile reaction of airways (an increase of insufflation pressure) was measured by a modified method of Konnzett & Rössler. Inhibition rate of increased hyperresponsive airway against the control group was calculated based on area under the curve (AUC) obtained from concentration-response curve of acetylcholine.

[4] = test system: OVA asthma model of rat; experiment: OVA asthma model of rat: infiltration of inflammatory cells in bronchoalveolar washings; assay type: in vivo, Brown Norway (BN) Rats; conditions: BN rats, 10 mg/kg p.o. once a day for three days, total cell number in bronchoalveolar washings vs control group
Procedure: as §1
(§2) After the measurement of increased hyperresponsive airway was completed, bronchoalveoli of the rats were washed with 5 mL of saline three times. Total cell number in the washings was counted by a hemacytometer under light microscope, and inhibition rates of infiltration of inflammatory cells against the control group were calculated. Further, mucin in the airway lavage fluid was measured by ELISA method using jacalin, a mucin-binding lectin, and the inhibition rates of mucus-secretion against the control group were calculated.

[5] = test system: OVA asthma model of rat; experiment: OVA asthma model of rat: mucus-secretion (mucin in airway lavage fluid, ELISA); assay type: in vivo, Brown Norway (BN) Rats; conditions: BN rats, 10 mg/kg p.o. once a day for three days, mucin in airway lavage fluid by ELISA vs control group
Procedure: as §1, §2

T1 sequence (Q13258 whole entry): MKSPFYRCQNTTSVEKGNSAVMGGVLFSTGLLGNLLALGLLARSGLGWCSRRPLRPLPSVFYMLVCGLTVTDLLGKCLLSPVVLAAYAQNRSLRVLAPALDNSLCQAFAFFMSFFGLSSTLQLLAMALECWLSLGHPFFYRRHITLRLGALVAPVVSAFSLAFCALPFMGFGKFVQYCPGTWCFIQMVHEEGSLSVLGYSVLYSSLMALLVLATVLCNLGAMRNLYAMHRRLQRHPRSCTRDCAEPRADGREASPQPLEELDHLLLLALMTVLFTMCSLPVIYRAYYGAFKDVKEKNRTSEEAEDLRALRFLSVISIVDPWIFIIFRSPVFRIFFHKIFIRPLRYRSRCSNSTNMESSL

Row | Compound | IC50 [1] [nM] | Ki [2] [nM] | inhibition rate (%) airway hyperresponsiveness [3] [%] | inhibition rate (%) infiltration of inflammatory cells [4] [%] | inhibition rate (%) mucus-secretion [5] [%]
1 | CCOc1ccc(S(=O)(=O)N2CCC(n3cc(CC(=O)O)c4cc(Cl)ccc43)C2)cc1 (centres unmarked) [Compound I-8] | 4.9 | – | – | – | –
2 | CC(C)Oc1ccc(S(=O)(=O)N2CCC(n3cc(CC(=O)O)c4ccccc43)CC2)cc1 [Compound I-1] | 4.7 | 7.7 | 43 | 58 | 52
3 | CC(C)Oc1ccc(S(=O)(=O)N2CCC(n3cc(CC(=O)O)c4ccc(Cl)cc43)CC2)cc1 [Compound I-9] | 2 | – | – | – | –
4 | CC(C)Oc1ccc(S(=O)(=O)N2CCC(n3cc(CC(=O)O)c4cc(Cl)ccc43)CC2)cc1 [Compound I-5] | 4.1 | 22 | – | – | –
5 | CCOc1ccc(S(=O)(=O)N2CCC(n3cc(CC(=O)O)c4ccc(Cl)cc43)CC2)cc1 [Compound I-10] | 6.9 | – | – | – | –
6 | CC(C)Oc1ccc(S(=O)(=O)N2CC[C@@H](n3cc(C(=O)O)c4ccc(Cl)cc43)C2)cc1 [Compound I-32] | 7 | – | – | – | –
7 | CC(C)Oc1ccc(S(=O)(=O)N2CCC(n3cc(C(=O)O)c4ccccc43)CC2)cc1 [Compound I-23] | 1.6 | 1.4 | 46 | 79 | 72
8 | CC(C)Oc1ccc(S(=O)(=O)N2CCC(n3cc(CC(=O)O)c4cc(Cl)ccc43)C2)cc1 (centres unmarked) [Compound I-7] | 1.8 | – | – | – | –
9 | CCOc1ccc(S(=O)(=O)N2CCC(n3cc(CC(=O)O)c4cc(Cl)ccc43)CC2)cc1 [Compound I-6] | 4.8 | – | – | – | –

More lines, main results first:

Row | IC50 [1] [nM] | Ki [2] [nM] | Compound | inhibition rate (%) airway hyperresponsiveness [3] [%] | inhibition rate (%) infiltration of inflammatory cells [4] [%] | inhibition rate (%) mucus-secretion [5] [%]
10 | 2.2 | 5.6 | CC(C)Oc1ccc(S(=O)(=O)N2CCC(n3cc(CC(=O)O)c4cc(F)ccc43)CC2)cc1 [Compound I-14] | – | – | –
11 | 3 | – | CC(C)Oc1ccc(S(=O)(=O)N2CC[C@H](n3nc(CC(=O)O)c4cc(Cl)ccc43)C2)cc1 [Compound I-21] | – | – | –
12 | 6.9 | – | CCOc1ccc(S(=O)(=O)N2CCC(n3cc(CC(=O)O)c4ccc(Cl)cc43)C2)cc1 (centres unmarked) [Compound I-12] | – | – | –
13 | 3.8 | – | CC(C)Oc1ccc(S(=O)(=O)N2CC[C@@H](n3cc(CC(=O)O)c4ccccc43)C2)cc1 [Compound I-20] | – | – | –
14 | 4.9 | – | CC(C)Oc1ccc(S(=O)(=O)N2CCC(n3cc(CC(=O)O)c4ccc(Cl)cc43)C2)cc1 (centres unmarked) [Compound I-11] | 77 | 56 | 30
15 | 2.9 | 4.3 | CC(C)Oc1ccc(S(=O)(=O)N2CC[C@@H](n3cc(CC(=O)O)c4ccc(F)cc43)C2)cc1 [Compound I-31] | – | – | –
16 | 1.3 | – | CC(C)Oc1ccc(S(=O)(=O)N2CCC(n3cc(CC(=O)O)c4ccc(F)cc43)CC2)cc1 [Compound I-16] | – | – | –
17 | 1.2 | 5.4 | CC(C)Oc1ccc(S(=O)(=O)N2CC[C@@H](n3cc(CC(=O)O)c4ccc(Cl)cc43)C2)cc1 [Compound I-30] | – | – | –

— patent US8623903B2, “Indolecarboxylic acid derivative having PGD2 receptor antagonistic activity” (Shionogi & Co., Ltd., priority 2005, dated 2014)
